The Ki is the dissociation constant of the complex between target and ligand, obtained from inhibition or displacement. A low value points to a stronger hold on the target.

The record followed here is ChEMBL document CHEMBL1134339, “New 1-aryl-3-(4-arylpiperazin-1-yl)propane derivatives, with dual action at 5-HT1A serotonin receptors and serotonin transporter, as a new class of antidepressants” (J Med Chem, 2001).

Experiment [1] has as its target T1, 5-hydroxytryptamine receptor 1A (Homo sapiens) (UniProt P08908).
T1 sequence (whole entry): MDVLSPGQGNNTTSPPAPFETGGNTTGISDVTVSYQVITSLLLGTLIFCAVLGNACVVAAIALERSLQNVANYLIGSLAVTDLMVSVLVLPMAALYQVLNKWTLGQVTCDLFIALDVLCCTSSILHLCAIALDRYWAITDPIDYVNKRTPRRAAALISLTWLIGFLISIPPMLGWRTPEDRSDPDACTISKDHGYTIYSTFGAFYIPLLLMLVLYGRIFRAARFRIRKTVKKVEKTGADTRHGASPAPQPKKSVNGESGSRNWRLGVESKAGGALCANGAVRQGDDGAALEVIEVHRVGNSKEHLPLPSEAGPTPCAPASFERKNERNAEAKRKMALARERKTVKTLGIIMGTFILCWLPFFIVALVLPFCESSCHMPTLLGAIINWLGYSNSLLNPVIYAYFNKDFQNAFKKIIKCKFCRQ
The following applies: HeLa.
Description: Effect (1 uM) on Forskolin-Stimulated cAMP formation, in HeLa cells transfected with the 5-HT 1A receptor

The target in experiment [2] is T2, Adrenergic receptor alpha-1 (Rattus norvegicus, UniProt P15823+P23944+P43140).
T2 sequence (P15823 whole entry): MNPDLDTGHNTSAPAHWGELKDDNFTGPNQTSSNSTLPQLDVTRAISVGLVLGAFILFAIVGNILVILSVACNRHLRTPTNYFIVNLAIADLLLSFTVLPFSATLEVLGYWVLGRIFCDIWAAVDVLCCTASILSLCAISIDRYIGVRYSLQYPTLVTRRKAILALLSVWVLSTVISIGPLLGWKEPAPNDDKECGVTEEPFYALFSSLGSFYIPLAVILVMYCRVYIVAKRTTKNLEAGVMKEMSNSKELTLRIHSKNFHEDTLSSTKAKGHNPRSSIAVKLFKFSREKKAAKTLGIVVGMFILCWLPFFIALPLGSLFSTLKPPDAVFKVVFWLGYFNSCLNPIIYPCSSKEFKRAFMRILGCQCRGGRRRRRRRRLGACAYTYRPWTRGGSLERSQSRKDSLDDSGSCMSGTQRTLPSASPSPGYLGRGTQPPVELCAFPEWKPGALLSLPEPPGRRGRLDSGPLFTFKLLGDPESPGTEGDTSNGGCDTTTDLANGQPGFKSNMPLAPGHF
T2 sequence (P23944 whole entry): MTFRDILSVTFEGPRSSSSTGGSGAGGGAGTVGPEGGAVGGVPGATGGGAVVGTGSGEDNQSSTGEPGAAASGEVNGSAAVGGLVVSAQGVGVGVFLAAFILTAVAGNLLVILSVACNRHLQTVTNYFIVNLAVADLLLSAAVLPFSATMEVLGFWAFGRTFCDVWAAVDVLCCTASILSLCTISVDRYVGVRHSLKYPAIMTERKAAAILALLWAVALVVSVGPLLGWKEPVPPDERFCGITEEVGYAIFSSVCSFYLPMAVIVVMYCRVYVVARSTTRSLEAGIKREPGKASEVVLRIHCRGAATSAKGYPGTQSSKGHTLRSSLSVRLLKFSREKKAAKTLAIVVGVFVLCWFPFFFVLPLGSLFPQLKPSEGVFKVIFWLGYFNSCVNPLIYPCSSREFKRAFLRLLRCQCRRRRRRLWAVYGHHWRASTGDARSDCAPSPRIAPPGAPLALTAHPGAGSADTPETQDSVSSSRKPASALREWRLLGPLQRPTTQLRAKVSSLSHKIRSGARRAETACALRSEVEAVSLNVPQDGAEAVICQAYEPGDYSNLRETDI
T2 sequence (P43140 whole entry): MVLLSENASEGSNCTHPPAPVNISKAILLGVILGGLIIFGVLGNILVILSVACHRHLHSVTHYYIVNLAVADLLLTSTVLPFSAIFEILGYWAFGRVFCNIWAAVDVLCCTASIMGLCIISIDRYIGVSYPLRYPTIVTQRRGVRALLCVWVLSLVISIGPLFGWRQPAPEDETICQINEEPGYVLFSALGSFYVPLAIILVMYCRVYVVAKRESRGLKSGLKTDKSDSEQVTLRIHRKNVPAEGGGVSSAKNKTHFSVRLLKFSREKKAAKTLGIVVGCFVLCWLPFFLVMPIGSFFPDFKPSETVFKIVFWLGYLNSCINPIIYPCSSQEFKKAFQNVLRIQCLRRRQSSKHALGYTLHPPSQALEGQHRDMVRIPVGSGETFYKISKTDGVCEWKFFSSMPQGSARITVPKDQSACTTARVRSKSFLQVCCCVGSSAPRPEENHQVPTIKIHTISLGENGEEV
Nature of the experiment: Affinity towards alpha-1 adrenergic receptor from rat cortex using [3H]prazosin radioligand (For prazosin Ki(nM)= […]+/-[…]).

Experiment [3] has as its system Mus musculus. Nature of the experiment: Effect on immobility time in the forced swimming test (FST) in mice at 10 mg/kg dose. The format is functional.
Experiment [4] concerns Mus musculus. Put plainly: Time-dependent effect on 8-OH-DPAT-induced hypothermia (change in body temperature) after 30 min, in mice at 5 mg/kg dose. The format is functional.
Experiment [5] has as its target T3, 5-hydroxytryptamine receptor 3A (Rattus norvegicus, UniProt P35563).
T3 sequence (P35563 whole entry): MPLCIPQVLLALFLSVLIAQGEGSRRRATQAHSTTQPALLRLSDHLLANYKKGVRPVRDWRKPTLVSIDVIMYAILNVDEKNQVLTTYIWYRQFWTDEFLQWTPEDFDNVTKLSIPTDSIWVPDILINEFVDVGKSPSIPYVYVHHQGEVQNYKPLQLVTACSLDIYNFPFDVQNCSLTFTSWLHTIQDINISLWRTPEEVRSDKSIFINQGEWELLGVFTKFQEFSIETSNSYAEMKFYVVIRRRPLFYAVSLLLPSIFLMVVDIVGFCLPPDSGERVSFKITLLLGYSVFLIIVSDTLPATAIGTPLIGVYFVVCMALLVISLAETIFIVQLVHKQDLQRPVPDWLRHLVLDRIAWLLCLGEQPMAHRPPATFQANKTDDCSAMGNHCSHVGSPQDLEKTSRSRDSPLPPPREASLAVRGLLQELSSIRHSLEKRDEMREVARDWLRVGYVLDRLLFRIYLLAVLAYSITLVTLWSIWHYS
Nature of the experiment: Affinity at 5-hydroxytryptamine 3 receptor from rat frontal cortex using [3H]granisetron as radioligand (For granisetron = Ki(nM)=0.3+/-0.01). It counts as tissue-based.

The target of a further experiment is D(2) dopamine receptor (Rattus norvegicus, UniProt P61169). Nature of the experiment: Affinity at dopamine D2 receptor from rat striatum using [3H]spiroperidol as radioligand (For haloperidol Ki(nM)= 1.5+/-1.2). It counts as tissue-based.
Sequence of D(2) dopamine receptor (P61169 whole entry): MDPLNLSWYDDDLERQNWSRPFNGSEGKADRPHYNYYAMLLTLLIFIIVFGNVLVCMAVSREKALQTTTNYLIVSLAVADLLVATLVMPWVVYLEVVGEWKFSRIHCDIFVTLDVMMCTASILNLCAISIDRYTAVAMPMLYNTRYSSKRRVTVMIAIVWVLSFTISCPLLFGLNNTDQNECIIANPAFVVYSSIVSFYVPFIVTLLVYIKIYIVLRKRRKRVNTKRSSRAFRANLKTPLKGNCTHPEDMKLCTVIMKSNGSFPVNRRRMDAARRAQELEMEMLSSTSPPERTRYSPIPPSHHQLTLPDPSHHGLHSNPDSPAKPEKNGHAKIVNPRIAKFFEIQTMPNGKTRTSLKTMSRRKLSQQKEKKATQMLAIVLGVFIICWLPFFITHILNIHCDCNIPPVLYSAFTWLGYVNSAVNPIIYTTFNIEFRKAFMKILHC
Experiment [6] has as its target Muscarinic acetylcholine receptor. Put plainly: Affinity at muscarinic receptor from rat cortex using [3H]-QNB as radioligand (For atropine Ki(nM)= 3.5+/-0.3).
The test system of experiment [7] is Mus musculus. Put plainly: Antidepressant-like activity in the forced swimming test (FST) in mice at 10 mg/kg dose; Antidepressant like activity. The format is functional.
Experiment [8] deals with Mus musculus. Nature of the experiment: Antidepressant-like activity in the forced swimming test (FST) in mice at 0.1 mg/kg dose; Antidepressant like activity. The format is functional.
In experiment [9] the test system is Mus musculus. Put plainly: Antidepressant-like activity in the forced swimming test (FST) in mice at 1 mg/kg dose; Antidepressant like activity. It counts as functional.

For `COc1ccccc1N1CCN(CCC(=O)c2csc3ccccc23)CC1`, the cAMP in [1] was below 20.8 pmol/well. Moreover, in experiment [2], the Ki is 0.006 µM. In the experiment with Mus musculus [3], the Immobility time is recorded as below 86.6 s. Further, the Temperature change in the experiment with Mus musculus [4] was below -1.47 °C.
Turning to `COc1ccccc1N1CCN(CCC(Oc2cccc3ccccc23)c2ccsc2)CC1` (stereo not drawn), the Ki in experiment [5] was above 5 µM; at D(2) dopamine receptor, 2.5 µM; in [6], above 5 µM; in experiment [2], 0.135 µM. Moreover, the Activity in the experiment with Mus musculus [7] amounted to 49%; in the experiment with Mus musculus [8], 0%; with Mus musculus [9] it was 48%. The same compound yielded a cAMP in experiment [1] below 15.4 pmol/well. Besides, the Immobility time in the experiment with Mus musculus [3] is given as below 91.1 s.
As to `COc1ccccc1N1CCN(CCC(O)c2csc3ccccc23)CC1` (stereo not drawn), the Ki in [5] was above 5 µM; at D(2) dopamine receptor it was 0.15 µM; in experiment [6], above 5 µM; in experiment [2], 0.035 µM. Moreover, the results for the Activity with Mus musculus [7], in the experiment on Mus musculus [8] and in the experiment on Mus musculus [9] were 1%, 35% and 33%, respectively. Also, the cAMP in [1] amounted to 18.1 pmol/well. The Immobility time in the experiment on Mus musculus [3] is reported as 143.5 s. The same compound came in with a Temperature change in the experiment on Mus musculus [4] of -2.5 °C.
